PMC10706087, “The Subtype Selectivity in Search of Potent Hypotensive Agents among 5,5-Dimethylhydantoin Derived α1-Adrenoceptors Antagonists” (International Journal of Molecular Sciences, 2023)
pIC50, pKi: −log10 of the molar value.

Experiments:
[1] = target: α1-adrenoceptors (α1-ARs), rat cerebral cortex; assay: Radioligand binding assay with [3H]-prazosin, affinity for α1-ARs; details: three independent experiments in duplicates, read-out: α1-adrenoceptor affinity Ki
Description: In the first step, all synthesized compounds (1–15) were tested in vitro for their affinity for α1-ARs on rat cerebral cortex by the radioligand binding assay using [^3H]-prazosin as a specific radioligand.
The affinity for α1-ARs was determined by radioligand binding assay on rat cerebral cortex using [3H]-prazosin as a specific radioligand. The brains were homogenized in 20 volumes of an ice-cold 50 mM Tris-HCl buffer (pH 7.6) and were centrifuged (MPW Med. Instruments, Warsaw, Poland) at 20,000× g for 20 min (0–4 °C). The cell pellet was resuspended in the Tris-HCl buffer and centrifuged again. Radioligand-binding assay was performed in plates (MultiScreen/Millipore, Burlington, MA, USA). The final incubation mixture (final volume 300 μL) consisted of 240 μL of the membrane suspension, 30 μL of [3H]-Prazosin (0.2 nM) solution, and 30 μL of the buffer containing seven to eight concentrations (10^−11 to 10^−4 M) of the tested compounds. For measuring the unspecific binding, phentolamine, 10 μM (in the case of [3H]-Prazosin) was applied. The incubation was terminated by rapid filtration over glass fiber filters (Whatman GF/C, Sigma-Aldrich) using a vacuum manifold (Millipore). The filters were then washed twice with the assay buffer and placed in scintillation vials with a liquid-scintillation cocktail. Radioactivity was measured in a WALLAC 1409 DSA liquid-scintillation counter (BioSurplus, San Diego, CA, USA).
(§1) All statistics were performed using GraphPad Prism, Version 6.0 (GraphPad Software, San Diego, CA, USA). In the radioligand binding study, data were analyzed by a one-site curve-fitting equation, and inhibition constants (Ki) values were calculated via the Cheng-Prusoff equation [63]. In functional studies, data were analyzed using a sigmoidal dose-response (variable slope) equation. Arterial blood pressure data were analyzed using a two-way ANOVA with Sidak’s post-hoc test for multiple comparisons. A p < 0.05 was considered statistically significant.

[2] = target: T1, human adrenergic receptor α1A (Homo sapiens, UniProt P35348); assay: Intrinsic activity, aequorin luminescence functional assay at α1A-AR; assay type: cell-based; details: for α1A-AR Profile: agonist/antagonist profile; for pIC50: cells expressing aequorin and human α1A, against phenylephrine, means of three independent experiments in duplicates; for Selectivity Ratio α1B/α1A: selectivity for α1A-AR (IC50(α1B-AR)/IC50(α1A-AR))
T1 sequence (P35348 1-466): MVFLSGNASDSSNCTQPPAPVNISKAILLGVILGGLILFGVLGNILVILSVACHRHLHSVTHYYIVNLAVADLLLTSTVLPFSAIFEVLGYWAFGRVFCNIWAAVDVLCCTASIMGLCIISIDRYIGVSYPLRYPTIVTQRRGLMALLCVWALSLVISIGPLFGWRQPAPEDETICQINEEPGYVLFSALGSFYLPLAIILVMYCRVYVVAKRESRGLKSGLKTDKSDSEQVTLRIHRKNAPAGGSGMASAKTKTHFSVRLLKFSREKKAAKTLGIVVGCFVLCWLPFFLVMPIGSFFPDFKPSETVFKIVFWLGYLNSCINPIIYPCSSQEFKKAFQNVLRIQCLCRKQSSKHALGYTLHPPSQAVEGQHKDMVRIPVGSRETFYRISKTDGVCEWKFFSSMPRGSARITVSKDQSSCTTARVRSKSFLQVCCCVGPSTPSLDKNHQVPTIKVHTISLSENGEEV
Description: (§2) The subtype selectivity for α1A and α1B was calculated as IC50(α1B-AR)/IC50(α1A-AR) and IC50(α1A-AR)/IC50(α1B-AR) ratio, respectively.
(§3) Intrinsic activity at the α1-AR subtypes studies were performed using the cells expressing mitochondrially-targeted aequorin and one of the human adrenergic receptor α1A or α1B (PerkinElmer, Boston, MA, USA), according to the manufacturer’s instructions. For measurement, frozen cells were thawed and re-suspended in 10 mL of assay buffer containing 5 μM “Coelenterazine h”. This cell suspension was put in a 10 mL Falcon tube, fixed onto a rotating heel, and incubated overnight at rt in the dark (8 rpm; 45° angle). Cells were diluted with Assay Buffer to 5000 cells/20 μL. […] The light emitted was recorded for 20 s. Cells with antagonists were incubated for 15 min at room temperature. […] Luminescence was measured using the multidetection microplate reader (POLARstar Omega, BMG LABTECH, Ortenberg, Germany).
as §1

[3] = target: T2, human adrenergic receptor α1B (Homo sapiens, UniProt P35368); assay: Intrinsic activity, aequorin luminescence functional assay at α1B-AR; assay type: cell-based; details: for α1B-AR Profile: agonist/antagonist profile; for pIC50: cells expressing aequorin and human α1B, against phenylephrine, means of three independent experiments in duplicates; for Selectivity Ratio α1A/α1B: selectivity for α1B-AR (IC50(α1A-AR)/IC50(α1B-AR))
T2 sequence (P35368 1-520): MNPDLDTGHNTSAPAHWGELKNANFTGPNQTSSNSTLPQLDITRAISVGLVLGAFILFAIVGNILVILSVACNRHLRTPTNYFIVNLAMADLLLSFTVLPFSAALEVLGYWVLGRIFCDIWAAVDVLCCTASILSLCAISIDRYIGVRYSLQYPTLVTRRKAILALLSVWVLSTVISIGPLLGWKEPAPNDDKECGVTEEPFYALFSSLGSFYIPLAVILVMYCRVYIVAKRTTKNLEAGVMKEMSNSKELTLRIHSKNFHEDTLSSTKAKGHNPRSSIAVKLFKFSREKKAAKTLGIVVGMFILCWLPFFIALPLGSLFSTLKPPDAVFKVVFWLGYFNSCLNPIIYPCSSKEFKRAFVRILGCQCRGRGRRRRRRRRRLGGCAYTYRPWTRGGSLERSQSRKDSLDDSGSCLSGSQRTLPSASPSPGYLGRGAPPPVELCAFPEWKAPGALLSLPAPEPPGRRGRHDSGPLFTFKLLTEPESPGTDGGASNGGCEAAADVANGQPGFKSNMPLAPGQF
Description: as §2, §3, §1

[4] = system: arterial blood pressure of normotensive Wistar rats; assay: Influence on blood pressure in normotensive anesthetized rats after i.v. administration; assay type: in vivo, rat; details: for Diastolic blood pressure / Systolic blood pressure: 2.0 mg/kg i.v., mean, n = 6
Description: In the next step, the hypotensive activity of novel compounds 1–3, 5–9, and 11–14 was determined after i.v. administration to normotensive anesthetized rats. All results are shown in Supplementary Table S1.
The normotensive rats were anesthetized with thiopental (75 mg/kg) by intraperitoneal injection (i.p.). The left carotid artery was cannulated with a polyethylene tub filled with heparin in saline to facilitate pressure measurements using a PowerLab Apparatus (ADInstruments, Sydney, Australia). Blood pressure was measured immediately before administration of the tested compounds or vehicle—time 0 min (initial blood pressure) and 60 min thereafter. Initial blood pressure before administration of the tested chemicals in all experimental groups was similar. The tested compounds were dissolved in a specific vehicle: ethyl alcohol 5% − kolliphor 5% − water 90%. All tested chemicals were administrated intravenously (i.v.) at a constant volume of 1 mL/kg after 20 min of stabilization period. The compounds were tested at a starting dose of 2 mg/kg. If the hypotensive activity was found, the dose was reduced by half. The dosing was continued until the hypotensive effects disappeared. Urapidil was used as a reference compound.
as §1

[5] = 0 min (initial, before administration)

Row | Compound | pKi [1] | α1A-AR Profile [2] | pIC50 [2] | Selectivity Ratio α1B/α1A [2] | α1B-AR Profile [3] | pIC50 [3] | Selectivity Ratio α1A/α1B [3] | Diastolic blood pressure [4, 5] | Systolic blood pressure [4, 5] | Diastolic blood pressure ([4]; 5 min) | Systolic blood pressure ([4]; 5 min) | Diastolic blood pressure ([4]; 10 min) | Systolic blood pressure ([4]; 10 min) | Diastolic blood pressure ([4]; 20 min) | Systolic blood pressure ([4]; 20 min) | Diastolic blood pressure ([4]; 30 min) | Systolic blood pressure ([4]; 30 min) | Diastolic blood pressure ([4]; 40 min) | Systolic blood pressure ([4]; 40 min) | Diastolic blood pressure ([4]; 50 min) | also measured
1 | COc1ccccc1N1CCN(CC(O)CN2C(=O)N(Cc3ccc(Cl)cc3Cl)C(=O)C2(C)C)CC1.Cl (stereo not shown) [Compound 13, 3-(2,4-dichlorobenzyl)-1-(2-hydroxy-3-(4-(2-methoxyphenyl)piperazin-1-yl)propyl)-5,5-dimethylimidazolidine-2,4-dione hydrochloride] | 7.54 | Antagonist | 6.86 | 2.39 | Antagonist | 6.48 | 0.42 | 98.0 | 130.7 | 61.2 | 102.8 | 70.8 | 107.7 | 77.3 | 109.3 | 82.2 | 112.7 | 82.8 | 113.3 | 82.2 | selectivity for α1A-AR over α1B-AR ([2]; from IC50 ratio): ~ 2 fold; Systolic blood pressure ([4]; 50 min): 117.2; Diastolic blood pressure ([4]; 60 min): 83.7; Systolic blood pressure ([4]; 60 min): 118.0; effect on systolic and diastolic blood pressure (in words) ([4]; i.v., normotensive anesthetized rats): statistically significant reduction; melting point: 144 to 146 °C
2 | COc1cccc(N2CCN(CC(O)CN3C(=O)N(Cc4ccc(Cl)cc4Cl)C(=O)C3(C)C)CC2)c1.Cl (stereo not shown) [Compound 14, 3-(2,4-dichlorobenzyl)-1-(2-hydroxy-3-(4-(3-methoxyphenyl)piperazin-1-yl)propyl)-5,5-dimethylimidazolidine-2,4-dione hydrochloride] | 6.54 | Antagonist | 5.91 | 1.12 | Antagonist | 5.86 | 0.89 | 100.8 | 132.5 | 100.3 | 132.3 | 100.7 | 132.0 | 96.0 | 129.3 | 96.0 | 127.7 | 97.3 | 125.8 | 94.3 | Systolic blood pressure ([4]; 50 min): 124.5; Diastolic blood pressure ([4]; 60 min): 92.0; Systolic blood pressure ([4]; 60 min): 124.3; melting point: 177 to 179 °C
3 | Cc1ccc(N2CCN(CC(O)CN3C(=O)N(Cc4ccc(Cl)cc4Cl)C(=O)C3(C)C)CC2)cc1C.Cl (stereo not shown) [Compound 12, 3-(2,4-dichlorobenzyl)-1-(3-(4-(3,4-dimethylphenyl)piperazin-1-yl)-2-hydroxypropyl)-5,5-dimethylimidazolidine-2,4-dione hydrochloride] | 6.57 | Antagonist | 5.50 | 0.12 | Antagonist | 6.42 | 8.31 | 104.2 | 139.0 | 98.2 | 134.7 | 99.5 | 134.5 | 97.8 | 132.0 | 96.7 | 131.0 | 97.0 | 129.0 | 96.8 | Systolic blood pressure ([4]; 50 min): 130.0; Diastolic blood pressure ([4]; 60 min): 97.3; melting point: 217 to 219 °C
